Measurements reported in patent US9562891B2, “Method for screening patient-specific anti-cancer agent using limiting dilution assay” (Samsung Life Public Welfare Foundation, priority 2013, dated 2017).

Legend:
[1] = tested on: 775T cell line (patient-derived brain glioblastoma); assay: Screening of anti-cancer agent using limiting dilution assay (sphere formation, ratio of non-formed wells); format: cell-based, human; conditions: 775T as compared to 448T and 464T cell lines; cultured 2 to 3 weeks (FIG. 5)
Text: The patient-specific anti-cancer agent was screened by using a limiting dilution assay according to the above-described Examples, and a result obtained therefrom was compared with a result separately obtained by a screening method using a 96 well plate. Alginate gel containing 2, 5, 10, 20, 50 or 100 cells was discharged onto each micropillar and was subjected to stamping into a culture medium containing the anti-cancer agent. The anti-cancer agent SU11274 and PHA665752, which is c-Met inhibitor, was treated for each concentration. A size of spheres formed after being cultured for 2 to 3 weeks was automatically measured and analyzed. Whether or not the sphere is formed was determined by culturing cells of the experimental group and the control group up to 4 doubling times and comparing sphere area max values of the biggest spheres among the spheres formed in each well, as shown in FIG. 4. […] Here, the well having sphere area max value smaller than the reference value was determined that the spheres were not formed in the well (non-formed). The well having sphere area max value as the same as the average value of the sphere area max of the control group or higher than that was determined that the sphere were formed in the well (formed). […]

[2] = tested on: patient-derived cancer cells (brain glioblastoma); assay: Three-dimensional culture of patient-derived cancer cells in alginate on micropillar chip, Calcein AM sphere staining; format: cell-based, human
Method: The suspension-cultured neurospheres obtained in Example above were collected and treated with 0.025% trypsin/EDTA for 3 minutes, thereby obtaining cell suspensions at a level of a single cell. The cell suspensions were prepared at a concentration of 4 cells/30 nl, 10 cells/30 nl, 20 cells/30 nl, 40 cells/30 nl, 100 cells/30 nl and 200 cells/30 nl, respectively. 50 μL of 3% alginate (Sigma-Aldrich, US) and 100 μL distilled water were mixed to prepare 1% alginate, and then the cell suspensions and 1% alginate as prepared above were mixed together in the same amount. The prepared alginate/cell mixture was discharged onto the surface-modified micropillar using a microarray spotter (Samsung Electro-Mechanics Co., Korea), followed by gelation for 2 minutes so that an alginate gel containing 2, 5, 10, 20, 50 or 100 cells was fixed onto each micropillar (FIG. 1). Each of 950 nl of 2 μM, 5 μM or 10 μM SU11274 (Sigma-Aldrich, US) was dispersed into a microwell chip (Samsung Electro-Mechanics Co., Korea) and the micropillar chip was subjected to stamping. […] 4 doubling time incubation was performed until spheres were formed from the patient-derived cancer cells, and the micropillar chip was subjected to fluorescence staining. […]

With `Cc1[nH]c(/C=C2\C(=O)Nc3ccc(S(=O)(=O)Cc4c(Cl)cccc4Cl)cc32)c(C)c1C(=O)N1CCC[C@@H]1CN1CCCC1` [PHA665752] the “sensitivity of cell line to anti-cancer effect in limiting dilution assay” value [1] was “most sensitive anti-cancer effects”.

With `Cc1[nH]c(/C=C2\C(=O)Nc3ccc(S(=O)(=O)N(C)c4cccc(Cl)c4)cc32)c(C)c1C(=O)N1CCN(C)CC1` [SU11274] the “sensitivity of cell line to anti-cancer effect in limiting dilution assay” value [1] was “most sensitive anti-cancer effects”, the “survival rate of the cancer cells” value ([2]; 2 μM, 5 μM or 10 μM, 2-100 cells per alginate gel, cultured 12 days, Calcein AM staining (FIG. 2)) was “survival rate of the cancer cells were decreased” and the “sphere formation (maximum sphere area)” value ([2]; 5 uM, 12 days, control group sphere areas increased to a maximum of 10.14 times (FIG. 3)) was “did not form the spheres”.
